Non-standard residues stand in square brackets, D forms with d. Residues, ends and D or L forms follow the SMILES beside them. pY = N[C@@H](Cc1ccc(OP(=O)(O)O)cc1)C(=O)O
Experiments:
Assay in all cases: biochemical
Format in all cases: binding
[1] = biological target: T1, SOCS4 (Homo sapiens, UniProt Q8WXH5)
T1 construct: made in house; host or cells: HEK293 (transient transfection), unpurified extract
T1 sequence (Q8WXH5 1-440): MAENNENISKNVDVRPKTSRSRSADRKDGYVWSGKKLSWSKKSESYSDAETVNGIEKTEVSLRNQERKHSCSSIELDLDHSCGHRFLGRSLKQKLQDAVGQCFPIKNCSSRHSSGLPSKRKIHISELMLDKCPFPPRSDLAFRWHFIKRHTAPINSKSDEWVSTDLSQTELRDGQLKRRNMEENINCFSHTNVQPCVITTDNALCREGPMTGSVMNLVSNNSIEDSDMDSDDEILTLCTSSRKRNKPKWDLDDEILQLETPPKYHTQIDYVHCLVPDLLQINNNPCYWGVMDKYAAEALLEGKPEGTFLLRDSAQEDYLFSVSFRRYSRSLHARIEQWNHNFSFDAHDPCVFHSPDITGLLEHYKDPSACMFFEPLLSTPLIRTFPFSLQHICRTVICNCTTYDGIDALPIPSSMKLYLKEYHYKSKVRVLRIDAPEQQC

[2] = biological target: T2, DAPP1 (Homo sapiens, UniProt Q9UN19)
T2 construct: the DNA-tagged SH2 domain concentrations used in this study were <0.1 nM; made in house; host or cells: HEK293 (transient transfection; unpurified extract)
T2 sequence (Q9UN19 35-129 limits assumed): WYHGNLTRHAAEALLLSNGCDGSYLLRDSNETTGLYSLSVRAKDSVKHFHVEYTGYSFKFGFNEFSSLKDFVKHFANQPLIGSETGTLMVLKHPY

[3] = biological target: T3, STAP2 (Homo sapiens, UniProt Q9UGK3)
T3 construct: made in house; host or cells: HEK293 (transient transfection), unpurified extract
T3 sequence (Q9UGK3 1-403): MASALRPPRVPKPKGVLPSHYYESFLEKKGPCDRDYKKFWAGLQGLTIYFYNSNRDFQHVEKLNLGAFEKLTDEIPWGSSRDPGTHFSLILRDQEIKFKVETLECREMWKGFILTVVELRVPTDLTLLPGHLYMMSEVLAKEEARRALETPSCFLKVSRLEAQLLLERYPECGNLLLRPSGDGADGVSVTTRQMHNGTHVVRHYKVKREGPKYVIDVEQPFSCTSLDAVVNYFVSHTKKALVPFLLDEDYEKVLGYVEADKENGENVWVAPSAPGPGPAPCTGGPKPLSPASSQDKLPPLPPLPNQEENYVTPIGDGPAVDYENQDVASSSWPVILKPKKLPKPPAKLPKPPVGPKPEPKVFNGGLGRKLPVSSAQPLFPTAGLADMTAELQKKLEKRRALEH

[4] = biological target: T4, STAP1 (Homo sapiens, UniProt Q9ULZ2)
T4 construct: made in house; host or cells: HEK293 (transient transfection), unpurified extract
T4 sequence (Q9ULZ2 1-295): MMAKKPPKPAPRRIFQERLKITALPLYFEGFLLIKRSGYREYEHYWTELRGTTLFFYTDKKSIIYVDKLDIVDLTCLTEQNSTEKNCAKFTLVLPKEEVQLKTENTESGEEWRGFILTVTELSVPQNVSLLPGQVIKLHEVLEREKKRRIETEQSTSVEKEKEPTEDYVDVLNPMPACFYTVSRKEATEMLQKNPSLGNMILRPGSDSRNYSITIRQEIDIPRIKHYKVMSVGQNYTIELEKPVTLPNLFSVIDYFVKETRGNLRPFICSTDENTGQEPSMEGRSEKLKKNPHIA

[5] = biological target: T5, PTPN6(SH2dom.C-term.) (Homo sapiens, UniProt P29350)
T5 construct: SH2dom.C-term. denotes SH2 domain closest to C-terminus of protein; made in house; host or cells: HEK293 (transient transfection, unpurified extract)
T5 sequence (P29350 110-213 limits assumed): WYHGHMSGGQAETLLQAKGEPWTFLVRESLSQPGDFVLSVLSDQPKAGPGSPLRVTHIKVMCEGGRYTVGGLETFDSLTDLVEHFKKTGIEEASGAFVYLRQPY

[6] = biological target: T6, RASA1(SH2dom.C-term.) (Homo sapiens, UniProt P20936)
T6 construct: SH2dom.C-term. denotes SH2 domain closest to C-terminus of protein; made in house; host or cells: HEK293 (transient transfection, unpurified extract)
T6 sequence (P20936 351-441 limits assumed): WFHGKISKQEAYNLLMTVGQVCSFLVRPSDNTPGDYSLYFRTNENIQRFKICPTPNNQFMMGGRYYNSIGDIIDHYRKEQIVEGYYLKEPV

[7] = biological target: T7, BRK (Homo sapiens, UniProt Q13882)
T7 construct: the DNA-tagged SH2 domain concentrations used in this study were <0.1 nM; made in house; host or cells: HEK293 (transient transfection; unpurified extract)

[8] = biological target: T8, ITK (Homo sapiens, UniProt Q08881)
T8 construct: the DNA-tagged SH2 domain concentrations used in this study were <0.1 nM; made in house; host or cells: HEK293 (transient transfection, unpurified extract)
T8 sequence (Q08881 239-338 limits assumed): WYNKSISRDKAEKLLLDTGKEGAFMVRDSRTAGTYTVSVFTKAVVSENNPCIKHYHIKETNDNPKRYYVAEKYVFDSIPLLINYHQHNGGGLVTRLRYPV

[9] = biological target: T9, SLP76 (Homo sapiens, UniProt Q13094)
T9 construct: made in house; host or cells: HEK293 (transient transfection), unpurified extract
T9 sequence (Q13094 1-533): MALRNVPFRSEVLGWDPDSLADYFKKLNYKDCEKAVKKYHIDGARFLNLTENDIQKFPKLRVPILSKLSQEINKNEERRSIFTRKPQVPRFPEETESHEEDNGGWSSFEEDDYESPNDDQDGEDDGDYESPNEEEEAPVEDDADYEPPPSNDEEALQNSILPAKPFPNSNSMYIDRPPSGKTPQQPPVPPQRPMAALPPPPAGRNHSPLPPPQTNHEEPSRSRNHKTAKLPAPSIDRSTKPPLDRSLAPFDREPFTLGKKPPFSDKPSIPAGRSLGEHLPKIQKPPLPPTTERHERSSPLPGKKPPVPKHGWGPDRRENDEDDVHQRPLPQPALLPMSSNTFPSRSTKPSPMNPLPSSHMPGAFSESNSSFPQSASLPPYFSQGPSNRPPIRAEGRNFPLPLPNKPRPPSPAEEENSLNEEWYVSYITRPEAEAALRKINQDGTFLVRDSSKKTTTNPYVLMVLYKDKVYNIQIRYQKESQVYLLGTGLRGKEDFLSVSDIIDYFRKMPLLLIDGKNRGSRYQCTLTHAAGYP

[10] = biological target: T10, APS (SH2B2) (Homo sapiens, UniProt O14492)
T10 construct: the DNA-tagged SH2 domain concentrations used in this study were <0.1 nM; made in house; host or cells: HEK293 (transient transfection; unpurified extract)

[11] = biological target: T11, GRB10 (Homo sapiens, UniProt Q13322)
T11 construct: the DNA-tagged SH2 domain concentrations used in this study were <0.1 nM; made in house; host or cells: HEK293 (transient transfection; unpurified extract)
T11 sequence (Q13322 493-574 limits assumed): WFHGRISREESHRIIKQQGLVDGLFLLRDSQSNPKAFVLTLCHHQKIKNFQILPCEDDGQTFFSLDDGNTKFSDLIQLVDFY

[12] = biological target: T12, MIST (Homo sapiens, UniProt Q7Z7G1)
T12 construct: the DNA-tagged SH2 domain concentrations used in this study were <0.1 nM; made in house; host or cells: HEK293 (transient transfection, unpurified extract)
T12 sequence (Q7Z7G1 309-419 limits assumed): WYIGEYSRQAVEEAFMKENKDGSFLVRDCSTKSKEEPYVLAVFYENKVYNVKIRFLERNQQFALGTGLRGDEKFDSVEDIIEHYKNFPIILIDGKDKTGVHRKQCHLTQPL

[13] = biological target: T13, BLNK (Homo sapiens, UniProt Q8WV28)
T13 construct: the DNA-tagged SH2 domain concentrations used in this study were <0.1 nM; made in house; host or cells: HEK293 (transient transfection; unpurified extract)
T13 sequence (Q8WV28 346-453 limits assumed): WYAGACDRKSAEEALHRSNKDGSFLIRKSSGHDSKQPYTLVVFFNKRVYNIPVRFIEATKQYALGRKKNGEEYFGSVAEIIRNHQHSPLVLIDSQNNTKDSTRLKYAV

T10 sequence (O14492 417-515 limits assumed): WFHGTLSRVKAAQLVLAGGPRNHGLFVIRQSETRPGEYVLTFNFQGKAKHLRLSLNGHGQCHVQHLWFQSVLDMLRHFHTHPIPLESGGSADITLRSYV
T7 sequence (Q13882 78-170 limits assumed): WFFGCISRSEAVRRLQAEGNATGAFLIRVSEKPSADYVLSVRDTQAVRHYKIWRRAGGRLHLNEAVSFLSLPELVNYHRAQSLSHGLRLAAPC

**Q.** How did the Kd [1] turn out when `CC(=O)N[C@@H](CC(C)C)C(=O)N[C@@H](CC(C)C)C(=O)N1CCC[C@H]1C(=O)N[C@@H](CC(C)C)C(=O)N[C@@H](CC(=O)O)C(=O)N[C@@H](CCCCN)C(=O)N[C@@H](CC(=O)O)C(=O)N[C@@H](Cc1ccc(OP(=O)(O)O)cc1)C(=O)N[C@@H](Cc1ccc(OP(=O)(O)O)cc1)C(=O)N[C@H](C(=O)N[C@H](C(=O)N[C@@H](CCCNC(=N)N)C(=O)N[C@@H](CCC(=O)O)C(=O)N1CCC[C@H]1C(=O)NCC(=O)N[C@@H](CCC(N)=O)C(N)=O)C(C)C)C(C)C` was run?
**A.** 0.00191 ± 0.0005 µM

**Q.** What about the Kd [2] of the same molecule?
**A.** 41.3 ± 5.96 µM

**Q.** Which results are given for `CC[C@H](C)[C@H](NC(=O)[C@H](CC(C)C)NC(=O)[C@@H](NC(=O)[C@H](CC(N)=O)NC(=O)[C@H](CCC(=O)O)NC(=O)[C@H](Cc1ccc(OP(=O)(O)O)cc1)NC(=O)[C@H](CO)NC(=O)[C@H](CC(N)=O)NC(=O)[C@H](C)NC(C)=O)C(C)C)C(=O)N[C@@H](C)C(=O)N[C@@H](CCCCN)C(N)=O` (Ac-ANS[pY]ENVLIAK-NH2)?
**A.** Kd [3]: 38.9 ± 7.93 µM; Kd [4]: 2.78 ± 0.615 µM

**Q.** Which Kd [5] does the source give for `CC[C@H](C)[C@H](NC(=O)[C@H](CCC(=O)O)NC(=O)[C@H](CCC(N)=O)NC(=O)[C@H](CCC(=O)O)NC(=O)[C@@H](NC(=O)[C@H](C)NC(C)=O)[C@@H](C)O)C(=O)N[C@H](C(=O)N[C@@H](Cc1ccc(OP(=O)(O)O)cc1)C(=O)N[C@@H](C)C(=O)N[C@@H](CCC(=O)O)C(=O)N[C@@H](CC(C)C)C(=O)N[C@@H](CC(N)=O)C(=O)N[C@@H](CC(C)C)C(=O)N[C@@H](CCC(N)=O)C(=O)N[C@@H](CCCCN)C(N)=O)[C@@H](C)O` (Ac-ATEQEIT[pY]AELNLQK-NH2) here?
**A.** 1.49 ± 0.666 µM

**Q.** With `CSCC[C@H](NC(=O)[C@@H]1CCCN1C(=O)[C@H](CCC(=O)O)NC(=O)[C@H](C)NC(=O)[C@H](Cc1ccc(OP(=O)(O)O)cc1)NC(=O)[C@H](CC(=O)O)NC(=O)[C@H](CO)NC(=O)[C@@H]1CCCN1C(=O)[C@H](CC(=O)O)NC(=O)[C@H](Cc1ccccc1)NC(=O)CNC(C)=O)C(=O)N[C@@H](CC(=O)O)C(=O)N[C@@H](C)C(=O)N[C@H](C(=O)N[C@H](C(N)=O)C(C)C)C(C)C` (Ac-GFDPSD[pY]AEPMDAVV-NH2) as the molecule, how does the Kd [6] read?
**A.** 0.00411 ± 0.00048 µM

**Q.** `CC(=O)N[C@@H](CC(=O)O)C(=O)N[C@@H](CC(=O)O)C(=O)N[C@@H](CC(=O)O)C(=O)N[C@@H](Cc1ccc(OP(=O)(O)O)cc1)C(=O)N[C@@H](CC(=O)O)C(=O)N[C@@H](CC(=O)O)C(=O)N[C@H](C(=O)N[C@@H](CC(=O)O)C(N)=O)C(C)C` [Ac-DDDpYDDVD-NH2] (Ac-DDD[pY]DDVD-NH2) was tested. Which Kd [7] did it give?
**A.** 0.226 ± 0.2 µM

**Q.** What about the Kd [8] of the same molecule?
**A.** 1.45 ± 0.153 µM

**Q.** What about the Kd [9] of the same molecule?
**A.** 1.41 ± 0.432 µM

**Q.** And the Kd [10]?
**A.** 8.78 ± 0.971 µM

**Q.** What about the Kd [11] of the same molecule?
**A.** 1.26 ± 1.16 µM

**Q.** And the Kd [12]?
**A.** 0.0329 ± 0.0067 µM

**Q.** What about the Kd [13] of the same molecule?
**A.** 0.137 ± 0.0224 µM

From PMC12951562, “SH2scan: Mapping SH2 Domain-Ligand Binding Selectivity for Inhibitors and Degraders” (Journal of Medicinal Chemistry, 2026)
